Common to all, as to format: cell-based, human
Test [1] deals with HT29. The test can be described thus: NCI growth inhibition, HT29. The following applies: HT29 (Colon).
Test [2] deals with HOP-92. The test can be described thus: NCI growth inhibition, HOP-92. To be noted: HOP-92 (Non-Small Cell Lung).
Test [3] concerns COLO 205. As to the kind of experiment: NCI growth inhibition, COLO 205. The following applies: COLO 205 (Colon).
In test [4] the test system is MALME-3M. The test can be described thus: NCI growth inhibition, MALME-3M. The following applies: MALME-3M (Melanoma).
The test system of test [5] is TK-10. The test can be described thus: NCI growth inhibition, TK-10. To be noted: TK-10 (Renal).
For test [6], the system named is SK-MEL-5. The test can be described thus: NCI growth inhibition, SK-MEL-5. To be noted: SK-MEL-5 (Melanoma).
Test [7] has as its system HL-60 (TB). As to the kind of experiment: NCI growth inhibition, HL-60 (TB). To be noted: HL-60(TB) (Leukemia).
The test system of test [8] is U251. As to the kind of experiment: NCI growth inhibition, U251. To be noted: U251 (CNS).
Test [9] deals with KM12. As to the kind of experiment: NCI growth inhibition, KM12. The following applies: KM12 (Colon).
For test [10], the system named is SR. As to the kind of experiment: NCI growth inhibition, SR. The following applies: SR (Leukemia).
In test [11] the test system is MCF7. The test can be described thus: NCI growth inhibition, MCF7. To be noted: MCF7 (Breast).
Test [12] deals with HCT-15. As to the kind of experiment: NCI growth inhibition, HCT-15. To be noted: HCT-15 (Colon).
For test [13], the system named is DU-145. The test can be described thus: NCI growth inhibition, DU-145. The following applies: DU-145 (Prostate).
Test [14] concerns SK-OV-3. The test can be described thus: NCI growth inhibition, SK-OV-3. To be noted: SK-OV-3 (Ovarian).

Results on 1 compound are retold here after patent US6667311B2, “Nitrogen substituted biaryl purine derivatives as potent antiproliferative agents” (Albany Molecular Research, Inc., priority 2001, dated 2003).

Each structure is given as a SMILES string.

By GI50 is commonly meant the concentration at which growth is held to half of that of the control. The low end stands for greater sensitivity of the cells, the high end for lower sensitivity of the cells. `CC(=O)N[C@H]1CC[C@H](Nc2nc(NCc3ccc(-c4ccccc4)nc3)c3ncn(C(C)C)c3n2)CC1` [Compound 87]: the 50% growth inhibitory concentration (GI50) is under 10 nM in [1]; 88 nM in test [2]; under 10 nM in [3]; 24 nM in [4]; 29 nM in test [5]; 28 nM in test [6]. For the same compound, the GI50 in test [7] is under 10 nM; in [8], 28 nM; in test [9], under 10 nM; in [10], 32 nM; in test [11] it was 40 nM; in [12], 66 nM. Moreover, the GI50 amounted to 220 nM in test [13] and 350 nM in test [14].
